Measurements taken from article PMC8799869, “D-enantiomers of CATH-2 enhance the response of macrophages against Streptococcus suis serotype 2” (Journal of Advanced Research, 2021).
In brackets after ≈: the same amount, converted by molar mass. Where two headings read alike, the source gives them in different places. Where a SMILES comes first, the peptide text is derived from it. Where no end group is shown, it is not given here. [ ]: non-standard residue; d: D form.

Legend:
[1] = tested on: S. suis serotype 2 strain D282; type: cell-based, Streptococcus suis; conditions: 3 h
Procedure: (§1) S. suis serotype 2 strains P1/7, D282, S735, and OV625 were grown into mid-logarithmic phase for 3–4 h at 37 °C in THB, after which bacteria were centrifuged at 1200×g for 10 min at 4 °C and resuspended in fresh THB. Bacterial concentration was determined by measuring optical density at 620 nm with an OD of 1.0 being equivalent to 1x10^8 colony forming units (CFU)/mL. 1x10^6 CFU/mL S. suis was mixed with different concentrations of D-CATH-2 and derivatives (0.63 – 40 µM) and incubated for 3 h at 37 °C. Ten-fold dilutions were prepared and spread in Tryptic Soy agar (TSA) plates containing 5% (v/v) defibrinated sheep blood (Oxoid) and colonies were allowed to grow for 48 h. Minimal Bactericidal Concentration (MBC) was defined as ≤100 CFU/mL (2 log CFU/mL), the detection limit of the assay.

[2] = tested on: S. suis serotype 2 strain OV625; type: cell-based, Streptococcus suis; conditions: 3 h
Procedure: as §1

[3] = tested on: S. suis serotype 2 strain P1/7; type: cell-based, Streptococcus suis; conditions: 3 h
Procedure: as §1

[4] = tested on: S. suis serotype 2 strain S735; type: cell-based, Streptococcus suis; conditions: 3 h
Procedure: as §1

[5] = Isothermal titration calorimetry (ITC), peptide binding to LTA; design: species or system S. aureus; conditions: 200 µM peptide titrated into 37.2 µM LTA-SA, MilliQ:dPBS 3:1, 37 °C, three experiments averaged, independent model, read-out: Kd, dissociation coefficient
Procedure: The interaction between the D-CATH-2 peptides and LTA-SA was tested using isothermal titration calorimetry (ITC). All ITC experiments were performed on a Low Volume NanoITC (TA instruments - Waters LLC, New Castle, USA). Peptide solution or 37.2 µM LTA-SA was prepared in MilliQ:dPBS (Gibco) in a 3:1 ratio. The chamber was filled with 164 µL LTA-SA and the peptide was loaded in the 50 µL syringe. Every 300 s, 1.99 µL peptide was titrated into the chamber at 37 °C. Data was analyzed using the Nano Analyze software (TA instruments-Waters LLC). The data of three experiments was averaged and an independent model was used to determine the peptide-LTA interaction.

[6] = tested on: murine BMDMs; test: BMDM differentiation after peptide exposure at day 1, flow cytometry; type: cell-based, mouse; conditions: 1.25 µM peptide at day 1 of culture for 24 h
Procedure: Murine bone marrow cells, isolated from the femur and tibia of both hindlegs, were stored in fetal calf serum (FCS) (Corning, NY, USA) containing 10% DMSO (Sigma-Aldrich, MO, USA) in liquid nitrogen. Cells were grown at a concentration of 5x10^5 cells/mL in RPMI-1640 without phenol red (Thermo Fisher Scientific, MA, USA) supplemented with 10% FCS and 1% penicillin/streptomycin (Thermo Fisher Scientific). Bone marrow-derived macrophages (BMDM) and bone marrow-derived dendritic cells (BMDC) were cultured by adding 20 ng/mL murine recombinant M−CSF or GM-CSF (PeproTech, NJ, USA) respectively. Where indicated, cells were supplemented with 1.25 µM peptide at day 1, which was replaced by fresh medium at day 2. The medium of all cells was replaced by fresh medium without antibiotics at day 3. At day 6 cells were stimulated with 1 µg/mL LTA from S. aureus (LTA-SA) (Invivogen, CA, USA) or with the different S. suis strains at a multiplicity of infection (MOI) of 0.2. Medium containing S. suis was removed after 2 h and replaced by medium containing 200 µg/mL gentamycin (Sigma) and left for an additional 22 h. After 24 h, medium was collected and stored at −20 °C for cytokine measurements. […] Cells were stained with antibodies (Table 1) for 20 min, washed and measured using aBD FACSCanto-II (BD Biosciences, NJ, USA) and analyzed with FlowJo software (Ashland, OR, USA).

[7] = tested on: S. suis P1/7; test: In vivo prophylactic S. suis P1/7 infection model; design: species or system mouse
Procedure: Upon arrival, mice were allowed to acclimatize for at least 7 days before the start of the experiment. The experiment was performed as depicted in Fig. 5A. The experiment was repeated twice to obtain in total 4 mice in the control groups and 12 mice in the infection groups. At day 1, mice were subcutaneously injected in the neck region with 1 mg/kg D-C(1–21) in PBS/cholesterol or with PBS/cholesterol alone. Cholesterol was added 5% v/v, 2 mg/ml in ethanol. The peptide and control groups were blinded to avoid any influence by the researchers. After 24 h (group 1) or after 7 days (group 2), mice were intraperitoneally infected with 10^7 CFU S. suis P1/7 in THB or with THB alone as control. 24 h after infection, a few drops of blood were collected via cheek puncture for bacterial count. During the infection phase of the experiment, mice were checked every 12 h in the acute phase of disease (first 48 h) and thereafter daily until the end of the study. A cumulative clinical score was given to the mice as measure of disease using several parameters as depicted in Table 4, according to Seitz et al.. When a mouse obtained a clinical score of 2 for a minimum of 3 out of 8 scoring points two days in a row, or in case of severe weight loss (>20%), the mouse was euthanized for animal welfare reasons (humane end point (HEP)) and the organs were collected for bacterial counts as described hereafter. Seven days post infection all mice were sacrificed for further analysis. Mice were anesthetized using isoflurane and 1 mL blood was drawn via heart puncture, followed by cervical dislocation. The peritoneum was flushed with 5 mL PBS/0.5 mM EDTA and diluted in 10 mL ice cold PBS/0.5% FCS. Spleen, lungs, liver, lymph nodes (axillary, inguinal, and mesenteric), brain, kidney and bone marrow were collected and stored in ice cold PBS. All organs, except the bone marrow and lymph nodes were weighed using a Sartorius microbalance. The peritoneal lavage (PTL) samples were counted using the Countess II Automated Cell Counter (Invitrogen, CA, USA). The lungs, liver, brain and kidney were meshed through a 40 µm filter (BD Biosciences) with 5 mL PBS to obtain single cell suspensions. Spleen and lymph nodes were digested with digestion buffer (1.5 WU/mL liberase TL grade, 100 Units/ml recombinant DNAse I, both Roche) for 30 min at 37 °C and meshed through a 40 µm filter using 5 mL PBS/0.5 mM EDTA. The red blood cells of the blood and spleen were lysed using an isotonic ammonium chloride buffer (155 mM NH4Cl, 10 mM KHCO3, 0.1 mM EDTA) for 5–10 min on ice, washed 1x with PBS and were resuspended in FACS buffer (PBS/0.5% BSA). Bone marrow samples were flushed out the femur and tibia of both legs with 5 mL PBS and filtered through a 40 µm filter. A sample of the blood, bone marrow, spleen, peritoneal lavage and lymph nodes was taken and stained for 30 min with different antibody panels (Table 1) and measured using the BD FACS Canto-II and analyzed with FlowJo V8. Of the lungs, liver, brain, kidney, spleen and peritoneal lavage samples, a 10-fold serial dilution was prepared and the samples were plated on TSA plates containing 5% (v/v) defibrinated sheep blood. The colonies were allowed to grow for 48 h at 37 °C. The number of colonies were counted, with ≤ 100 CFU/mL (2 log CFU/mL) as detection limit of the assay and calculated as CFU/mg organ.

[8] = tested on: E. coli; conditions: in ovo administration three days before hatch; cited from earlier work
Description: (§2) In this study injection of D-C(1–21) reduced disease severity and increased the survival rate, although the differ ...

[9] = previously shown; read-out: dissociation coefficient to LPS; cited from earlier work
Procedure: Inhibition of LPS-induced, and to a lesser extent LTA-induced activation, is a widely studied immunomodulatory aspect of cathelicidins. […] The dissociation coefficient to LTA is with 2–10 µM much higher than previously shown for L-CATH-2 to LPS with a dissociation coefficient of 0.08 µM, [32] indicating a stronger binding to LPS than to LTA. However, since D-CATH-2 was highly efficient at inhibiting LTA-induced activation, it might also be that the inh ...

[10] = intravenous administration; blood and peritoneum; cited from earlier work
Description: as §2

| Compound | MBC [1] | MBC [2] | MBC [3] | MBC [4] | Kd [5] | further results |
| --- | --- | --- | --- | --- | --- | --- |
| CC[C@@H](C)[C@@H](NC(=O)[C@@H](CCCCN)NC(=O)[C@@H](CCCNC(=N)N)NC(=O)[C@@H](CC(C)C)NC(=O)[C@@H](Cc1ccccc1)NC(=O)[C@@H](CCCNC(=N)N)NC(=O)CNC(=O)[C@@H](Cc1ccccc1)NC(=O)[C@H](N)CCCNC(=N)N)C(=O)N[C@H](CCCNC(=N)N)C(=O)N[C@H](CCCNC(=N)N)C(=O)N[C@H](Cc1ccccc1)C(=O)N[C@H](CCCNC(=N)N)C(=O)N1CCC[C@@H]1C(=O)N[C@H](CCCCN)C(=O)N[C@@H](C(=O)N[C@@H](C(=O)N[C@@H](C(=O)N[C@@H](C(=O)N[C@@H](C(=O)N[C@H](CCC(N)=O)C(N)=O)[C@H](C)CC)[C@H](C)O)[C@H](C)CC)[C@H](C)O)C(C)C [D-C(1–21)] (H-[dR][dF]G[dR][dF][dL][dR][dK][dI][dR][dR][dF][dR][dP][dK][dV][dT][dI][dT][dI][dQ]-NH2; N-terminus and C-terminus assumed) | 2.5 to 5 µM | 0.6 to 5 µM | 2.5 µM (≈ 6.72 µg/mL) | 2.5 µM (≈ 6.72 µg/mL) | 10.2 µM | BMDM differentiation efficiency, percentage of cells expressing F4/80 at day 6 [6]: most pronounced; cumulative clinical score ([7]; 1 mg/kg s.c., infected 24 h post peptide injection, late stage of disease): small reduction of cumulative clinical score; cumulative clinical score ([7]; 1 mg/kg s.c., infected 7 days post peptide injection, acute phase of disease): reduction in cumulative clinical score; survival ([7]; 1 mg/kg s.c., infected either 24 h or 7 days post peptide injection): higher chance of survival; bodyweight loss up to 48 h post infection ([7]; 1 mg/kg s.c., infected i.p. with 10^7 CFU 24 h or 7 d post peptide injection, same in control mice): approximately 8%; bacteria in the blood 7 days post infection ([7]; 24 h D-C(1–21) treated mice): no mice had bacteria left in the bloodstream; number of S. suis positive organs per mouse ([7]; 24 h D-C(1–21) treated mice versus untreated, not statistically significant): generally less S. suis positive organs; total CFU counts in organs ([7]; 24 h D-C(1–21) treated mice versus untreated, not statistically significant, not found for 7 day treated mice): lower total CFU counts; S. suis bacteria in the bloodstream 24 h post infection ([7]; all mice, treated or not): 10^5-10^6 CFU/mL; bacterial counts in organs of mice reaching the HEP ([7]; treated mice reaching HEP before the end of the study, especially in the brain): less bacterial counts |
| CC[C@@H](C)[C@@H](NC(=O)[C@@H](CCCCN)NC(=O)[C@@H](CCCNC(=N)N)NC(=O)[C@@H](CC(C)C)NC(=O)[C@@H](Cc1ccccc1)NC(=O)[C@H](N)CCCNC(=N)N)C(=O)N[C@H](CCCNC(=N)N)C(=O)N[C@H](CCCNC(=N)N)C(=O)N[C@H](Cc1ccccc1)C(=O)N[C@H](CCCNC(=N)N)C(=O)N1CCC[C@@H]1C(=O)N[C@H](CCCCN)C(=O)N[C@@H](C(=O)N[C@@H](C(=O)N[C@@H](C(=O)N[C@@H](C(=O)N[C@@H](C(=O)N[C@H](CCC(N)=O)C(N)=O)[C@H](C)CC)[C@H](C)O)[C@H](C)CC)[C@H](C)O)C(C)C [D-C(4–21)] (H-[dR][dF][dL][dR][dK][dI][dR][dR][dF][dR][dP][dK][dV][dT][dI][dT][dI][dQ]-NH2; N-terminus and C-terminus assumed) | 2.5 to 5 µM | 1.25 to 2.5 µM | 5 to 10 µM | 2.5 µM (≈ 5.82 µg/mL) | 2.12 µM | – |
| CC[C@@H](C)[C@@H](NC(=O)[C@@H](CCCCN)NC(=O)[C@@H](CCCNC(=N)N)NC(=O)[C@@H](CC(C)C)NC(=O)[C@@H](Cc1ccccc1)NC(=O)[C@@H](CCCNC(=N)N)NC(=O)CNC(=O)[C@@H](Cc1ccccc1)NC(=O)[C@H](N)CCCNC(=N)N)C(=O)N[C@H](CCCNC(=N)N)C(=O)N[C@H](CCCNC(=N)N)C(=O)N[C@H](Cc1ccccc1)C(=O)N[C@H](CCCNC(=N)N)C(=O)N1CCC[C@@H]1C(=O)N[C@H](CCCCN)C(=O)N[C@@H](C(=O)N[C@@H](C(=O)N[C@@H](C(=O)N[C@@H](C(=O)N[C@@H](C(=O)N[C@H](CCC(N)=O)C(=O)NCC(=O)N[C@H](CO)C(=O)N[C@H](C)C(=O)N[C@H](CCCNC(=N)N)C(=O)N[C@H](Cc1ccccc1)C(N)=O)[C@H](C)CC)[C@H](C)O)[C@H](C)CC)[C@H](C)O)C(C)C [D-CATH-2] (H-[dR][dF]G[dR][dF][dL][dR][dK][dI][dR][dR][dF][dR][dP][dK][dV][dT][dI][dT][dI][dQ]G[dS][dA][dR][dF]-NH2; N-terminus assumed) | 2.5 to 5 µM | 1.25 to 5 µM | 2.5 to 5 µM | 1.25 to 2.5 µM | 3.04 µM | protection of chickens against infection [8]: protects chickens up to 7 days post hatch |
| L-CATH-2: natural chicken cathelicidin-2 (RFGRFLRKIRRFRPKVTITIQGSARF-NH2) | – | – | – | – | – | Kd [9]: 0.08 µM |
| LL-37 | – | – | – | – | – | survival and bacterial load in septic mice [10]: improved the survival and reduced the bacterial load |
